IC50 and inhibition data for seven compounds are collected here from ChEMBL document CHEMBL1667723, “Biotransformation of turmerones by Aspergillus niger” (J Nat Prod, 2011).

Each structure is given as a SMILES string.

The target of one experiment is T1, Acetylcholinesterase (Homo sapiens, UniProt P22303). Nature of the experiment: Inhibition of human erythrocytes acetylcholinesterase after 15 mins.
T1 sequence (P22303 whole entry): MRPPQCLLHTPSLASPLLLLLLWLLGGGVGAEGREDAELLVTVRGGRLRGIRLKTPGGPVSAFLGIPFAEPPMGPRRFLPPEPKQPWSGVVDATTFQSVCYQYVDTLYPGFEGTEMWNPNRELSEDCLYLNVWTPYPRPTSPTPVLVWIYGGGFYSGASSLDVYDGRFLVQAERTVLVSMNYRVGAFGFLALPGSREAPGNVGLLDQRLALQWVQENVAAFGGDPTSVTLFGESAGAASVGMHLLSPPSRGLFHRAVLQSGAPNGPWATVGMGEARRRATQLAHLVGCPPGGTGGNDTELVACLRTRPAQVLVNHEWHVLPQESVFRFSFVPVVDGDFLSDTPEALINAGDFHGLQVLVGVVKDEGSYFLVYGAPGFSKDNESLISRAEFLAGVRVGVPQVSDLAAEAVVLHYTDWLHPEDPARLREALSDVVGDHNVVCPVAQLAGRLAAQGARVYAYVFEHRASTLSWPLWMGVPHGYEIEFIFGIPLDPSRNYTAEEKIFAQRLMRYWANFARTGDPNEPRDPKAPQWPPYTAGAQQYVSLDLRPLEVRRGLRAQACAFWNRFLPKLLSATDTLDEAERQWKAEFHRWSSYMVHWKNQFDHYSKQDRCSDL
On to `CC(C)=CC(=O)C[C@H](C)c1ccc(C)cc1`, for which the midpoint of inhibition, the IC50, lay at 191 µM. Turning to `Cc1ccc([C@@H](C)CC(=O)CC(C)C)cc1`, it took 81.5 µM to reach half-maximal inhibition (IC50).

In another experiment the target is T1, Acetylcholinesterase. Kind of experiment: Inhibition of human erythrocytes acetylcholinesterase after 15 mins at 250 uM relative to control.
Take `Cc1coc(C[C@](C)(O)c2ccc(C(=O)O)cc2)c1`: the inhibition was 33.6%. For the compound `C/C(=C\C(=O)C[C@](C)(O)c1ccc(C(=O)O)cc1)CO`, the inhibition was found to be 34.3%.

On to `CC(C)(O)CC(=O)CC(C)(O)c1ccc(C(=O)O)cc1` (single isomer, unassigned; (+)), for which the inhibition worked out at 37.6%. `C/C(=C\C(=O)C[C@H](C)c1ccc(C(=O)O)cc1)CO` came in with an inhibition of 31%. Compound `CC(C)=CC(=O)C[C@](C)(O)c1ccc(C(=O)O)cc1` returned an inhibition of 41.9%.

As a reminder, the IC50 is the concentration that inhibits the measured activity by half. As usually defined, the inhibition is the percentage by which the read-out fell short of the control.
